# Data: ChEMBL document CHEMBL5131391, “One-pot three-component synthesis of novel pyrazolo[3,4-b]pyridines as potent antileukemic agents” (Eur J Med Chem, 2022)
# The source made the active and inactive calls. No cut-off for these calls is given here.
# Assays:
# BT-549 = test: Antiproliferative activity against human BT-549 cells assessed as growth inhibition measured after 48 hrs by NCI protocol based SRB assay; assay type: functional
# MCF7 = test: Cytostatic activity in human MCF7 cells assessed as tumor growth inhibition measured after 48 hrs by NCI protocol based SRB assay; assay type: functional
# DU-145 = test: Antiproliferative activity against human DU-145 cells assessed as growth inhibition measured after 48 hrs by NCI protocol based SRB assay; assay type: functional
# OVCAR-4 = test: Antiproliferative activity against human OVCAR-4 cells assessed as growth inhibition at 10 uM measured after 48 hrs by NCI protocol based SRB assay relative to control; assay type: functional; conditions: read-out: GI
# LOX IMVI [1] = test: Cytostatic activity in human LOX IMVI cells assessed as tumor growth inhibition measured after 48 hrs by NCI protocol based SRB assay; assay type: functional
# NCI-H460 = test: Antiproliferative activity against human NCI-H460 cells assessed as growth inhibition at 10 uM measured after 48 hrs by NCI protocol based SRB assay relative to control; assay type: functional; conditions: read-out: GI
# OVCAR-3 = test: Antiproliferative activity against human OVCAR-3 cells assessed as growth inhibition at 10 uM measured after 48 hrs by NCI protocol based SRB assay relative to control; assay type: functional; conditions: read-out: GI
# A549 = test: Antiproliferative activity against human A549 cells assessed as growth inhibition at 10 uM measured after 48 hrs by NCI protocol based SRB assay relative to control; assay type: functional; conditions: read-out: GI
# MDA-MB-468 = test: Antiproliferative activity against human MDA-MB-468 cells assessed as growth inhibition at 10 uM measured after 48 hrs by NCI protocol based SRB assay relative to control; assay type: functional; conditions: read-out: GI
# HCC 2998 = test: Antiproliferative activity against human HCC 2998 cells assessed as growth inhibition at 10 uM measured after 48 hrs by NCI protocol based SRB assay relative to control; assay type: functional; conditions: read-out: GI
# K562 = test: Antiproliferative activity against human K562 cells assessed as reduction in cell viability incubated for 72 hrs by resazurin dye based assay; assay type: functional; conditions: K562, 72 h
# SK-MEL-2 = test: Antiproliferative activity against human SK-MEL-2 cells assessed as growth inhibition at 10 uM measured after 48 hrs by NCI protocol based SRB assay relative to control; assay type: functional; conditions: read-out: GI
# U-251 [2] = test: Cytostatic activity in human U-251 cells assessed as tumor growth inhibition measured after 48 hrs by NCI protocol based SRB assay; assay type: functional
# TK-10 = test: Antiproliferative activity against human TK-10 cells assessed as growth inhibition at 10 uM measured after 48 hrs by NCI protocol based SRB assay relative to control; assay type: functional; conditions: read-out: GI
# OVCAR-5 = test: Antiproliferative activity against human OVCAR-5 cells assessed as growth inhibition at 10 uM measured after 48 hrs by NCI protocol based SRB assay relative to control; assay type: functional; conditions: read-out: GI
# KM12 = test: Antiproliferative activity against human KM12 cells assessed as growth inhibition at 10 uM measured after 48 hrs by NCI protocol based SRB assay relative to control; assay type: functional; conditions: read-out: GI
# LOX IMVI [3] = test: Antiproliferative activity against human LOX IMVI cells assessed as growth inhibition at 10 uM measured after 48 hrs by NCI protocol based SRB assay relative to control; assay type: functional; conditions: read-out: GI
# SK-MEL-5 = test: Antiproliferative activity against human SK-MEL-5 cells assessed as growth inhibition at 10 uM measured after 48 hrs by NCI protocol based SRB assay relative to control; assay type: functional; conditions: read-out: GI
# HCT-15 = test: Antiproliferative activity against human HCT-15 cells assessed as growth inhibition at 10 uM measured after 48 hrs by NCI protocol based SRB assay relative to control; assay type: functional; conditions: read-out: GI
# HL-60(TB) [4] = test: Cytostatic activity in human HL-60(TB) cells assessed as tumor growth inhibition measured after 48 hrs by NCI protocol based SRB assay; assay type: functional
# NCI-H226 = test: Cytostatic activity in human NCI-H226 cells assessed as tumor growth inhibition measured after 48 hrs by NCI protocol based SRB assay; assay type: functional
# U-251 [5] = test: Antiproliferative activity against human U-251 cells assessed as growth inhibition at 10 uM measured after 48 hrs by NCI protocol based SRB assay relative to control; assay type: functional; conditions: read-out: GI
# OVCAR-8 = test: Antiproliferative activity against human OVCAR-8 cells assessed as growth inhibition at 10 uM measured after 48 hrs by NCI protocol based SRB assay relative to control; assay type: functional; conditions: read-out: GI
# SNB-75 = test: Antiproliferative activity against human SNB-75 cells assessed as growth inhibition at 10 uM measured after 48 hrs by NCI protocol based SRB assay relative to control; assay type: functional; conditions: read-out: GI
# Hs-578T = test: Antiproliferative activity against human Hs-578T cells assessed as growth inhibition at 10 uM measured after 48 hrs by NCI protocol based SRB assay relative to control; assay type: functional; conditions: read-out: GI
# MDA-MB-231 = test: Antiproliferative activity against human MDA-MB-231 cells assessed as growth inhibition at 10 uM measured after 48 hrs by NCI protocol based SRB assay relative to control; assay type: functional; conditions: read-out: GI
# HOP-92 = test: Antiproliferative activity against human HOP-92 cells assessed as growth inhibition at 10 uM measured after 48 hrs by NCI protocol based SRB assay relative to control; assay type: functional; conditions: read-out: GI
# HT-29 = test: Antiproliferative activity against human HT-29 cells assessed as growth inhibition at 10 uM measured after 48 hrs by NCI protocol based SRB assay relative to control; assay type: functional; conditions: read-out: GI
# 786-0 = test: Antiproliferative activity against human 786-0 cells assessed as growth inhibition measured after 48 hrs by NCI protocol based SRB assay; assay type: functional
# SK-OV-3 = test: Antiproliferative activity against human SK-OV-3 cells assessed as growth inhibition at 10 uM measured after 48 hrs by NCI protocol based SRB assay relative to control; assay type: functional; conditions: read-out: GI
# EKVX = test: Antiproliferative activity against human EKVX cells assessed as growth inhibition at 10 uM measured after 48 hrs by NCI protocol based SRB assay relative to control; assay type: functional; conditions: read-out: GI
# RS4-11 [6] = test: Antiproliferative activity against human RS4-11 cells assessed as reduction in cell viability incubated for 72 hrs by resazurin dye based assay; assay type: functional; conditions: RS4-11, 72 h
# ML-2 = test: Antiproliferative activity against human ML-2 cells assessed as reduction in cell viability incubated for 72 hrs by resazurin dye based assay; assay type: functional; conditions: ML-2, 72 h
# KOPN-8 = test: Antiproliferative activity against human KOPN-8 cells assessed as reduction in cell viability incubated for 72 hrs by resazurin dye based assay; assay type: functional; conditions: KOPN-8, 72 h
# MOLT-4 = test: Antiproliferative activity against human MOLT-4 cells assessed as growth inhibition at 10 uM measured after 48 hrs by NCI protocol based SRB assay relative to control; assay type: functional; conditions: read-out: GI
# HL-60(TB) [7] = test: Antiproliferative activity against human HL-60(TB) cells assessed as growth inhibition at 10 uM measured after 48 hrs by NCI protocol based SRB assay relative to control; assay type: functional; conditions: read-out: GI
# RS4-11 [8] = test: Downregulation of HOXA9 protein expression in human RS4-11 cells at 5 to 20 uM measured after 24 hrs by Western blot analysis; assay type: functional, cell-based; conditions: dose 5-20 µM
# [9] = read-out: LC50 (the source's name)
Structure (SMILES),inhibition of growth at 10 µM (OVCAR-4) [%],inhibition of growth at 10 µM (NCI-H460) [%],inhibition of growth at 10 µM (OVCAR-3) [%],inhibition of growth at 10 µM (A549) [%],inhibition of growth at 10 µM (MDA-MB-468) [%],IC50 (K562) [µM],inhibition of growth at 10 µM (SK-MEL-2) [%],inhibition of growth at 10 µM (TK-10) [%],inhibition of growth at 10 µM (KM12) [%],inhibition of growth at 10 µM (LOX IMVI [3]) [%],inhibition of growth at 10 µM (SK-MEL-5) [%],inhibition of growth at 10 µM (HCT-15) [%],inhibition of growth at 10 µM (U-251 [5]) [%],inhibition of growth at 10 µM (OVCAR-8) [%],inhibition of growth at 10 µM (SNB-75) [%],inhibition of growth at 10 µM (Hs-578T) [%],inhibition of growth at 10 µM (MDA-MB-231) [%],inhibition of growth at 10 µM (HOP-92) [%],inhibition of growth at 10 µM (EKVX) [%],inhibition of growth at 10 µM (MOLT-4) [%],further results
N#Cc1c(-c2ccccc2)nc2c(c(-c3ccccc3)nn2-c2ccccc2)c1-c1ccc(O)cc1,28,91,46,59,62,9.6,28,79,53,148,42,66,76,45,67,85,77,50,55,–,GI50 (BT-549): 2 µM; CC50 (BT-549; [9]): 9.92 µM; TGI (MCF7): 4.76 µM; GI50 (DU-145): 2.62 µM; CC50 (DU-145; [9]): 37.7 µM; TGI (LOX IMVI [1]): 3.05 µM; inhibition of growth at 10 µM (HCC 2998): 28%; TGI (U-251 [2]): 3.97 µM; inhibition of growth at 10 µM (OVCAR-5): 19%; TGI (HL-60(TB) [4]): 23.7 µM; TGI (NCI-H226): 4.51 µM; inhibition of growth at 10 µM (HT-29): 16%; GI50 (786-0): 2.16 µM; CC50 (786-0; [9]): 31.8 µM; inhibition of growth at 10 µM (SK-OV-3): 29%
N#Cc1c(-c2ccco2)nc2c(c(-c3ccccc3)nn2-c2ccccc2)c1-c1ccc(O)cc1,23,51,14,54,–,4.2,30,11,58,–,13,62,39,45,29,47,18,24,44,91,IC50 (RS4-11 [6]): 15.1 µM; IC50 (ML-2): 12.8 µM; IC50 (KOPN-8): 10 µM; inhibition of growth at 10 µM (HL-60(TB) [7]): 78%; inhibition of growth at 10 µM (HT-29): 70%; inhibition of growth at 10 µM (SK-OV-3): 54%
COc1cc(-c2c(C#N)c(-c3ccccc3)nc3c2c(-c2ccccc2)nn3-c2ccccc2)ccc1O,34,38,23,48,38,> 50,–,42,35,26,21,30,31,28,20,32,28,22,18,–,–
N#Cc1c(-c2ccc(Cl)cc2)nc2c(c(-c3ccccc3)nn2-c2ccccc2)c1-c1ccc(O)cc1,36,75,52,59,69,20.8,26,83,59,74,44,73,67,51,58,74,64,44,33,76,inhibition of growth at 10 µM (HCC 2998): 16%; inhibition of growth at 10 µM (OVCAR-5): 17%; inhibition of growth at 10 µM (HL-60(TB) [7]): 68%
Cc1ccc(-c2nc3c(c(-c4ccccc4)nn3-c3ccccc3)c(-c3ccc(O)cc3)c2C#N)cc1,18,73,36,48,48,8.8,22,62,45,88,23,72,59,31,60,77,55,26,26,60,IC50 (RS4-11 [6]): 2.7 µM; IC50 (ML-2): 1.4 µM; IC50 (KOPN-8): 0.3 µM; Activity (RS4-11 [8]): Active; inhibition of growth at 10 µM (HL-60(TB) [7]): 68%
